Twelve molecules from patent publication US12390437B2, “Itaconic acid derivatives and uses thereof intreating an inflammatory disease or a disease associated with an undesirable immune response” (Sitryx Therapeutics Limited, priority 2019, dated 2025) can be followed below.

Read-outs that look alike come from different tables or passages of the source.

The subject of assay [1] is IL-1β cytokine output from THP-1s. The experiment in a line: THP-1 AlphaLISA IL-1β cytokine assay. It is filed as cell-based, human. Conditions: Homo sapiens, LPS 24 hr then Nigericin 1 hour, read-out: IL-1β (IC50). The method in brief: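 Percent inhibition, normalised to plus- and minus-LPS controls, was plotted against concentration to derive IC50. Differentiated THP-1 cells received compound 30 min ahead of LPS (24 h) and a 1 h nigericin pulse; AlphaLISA quantified supernatant cytokine.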
(In general: Bead proximity is the source of the signal in Alpha formats.)

The subject of a further assay is NRF2. Description: NRF2 +/-GSH activation assay (DiscoverX PathHunter NRF2 translocation kit, U2OS cells). The settings on record: Homo sapiens; for Emax: read-out: NRF2 activation Emax; for EC50: read-out: NRF2 activation EC50. It is filed as cell-based. The protocol:
Measuring Compound Activation Effects on the Anti-Inflammatory Transcription Factor NRF2 in DiscoverX PathHunter NRF2 Translocation Kit
Potency and efficacy of compounds of formula (IW-1) against the target of interest to activate NRF2 (nuclear factor erythroid 2-related factor 2) were determined using the PathHunter NRF2 translocation kit (DiscoverX). The NRF2 translocation assay was run using an engineered recombinant cell line, utilising enzyme fragment complementation to determine activation of the Keap1-NRF2 protein complex and subsequent translocation of NRF2 into the nucleus. Enzyme activity was quantified using a chemiluminescent substrate consumed following the formation of a functional enzyme upon PK-tagged NRF2 translocation into the nucleus.
The assay was run under either +/−GSH (glutathione) conditions to determine the attenuating activities of GSH against target compounds.
Additionally, a defined concentration of dimethyl fumarate was used as the ‘High’ control to normalise test compound activation responses to.
U2OS PathHunter eXpress cells were thawed from frozen prior to plating. Following plating, U2OS cells were incubated for 24 hrs (37° C./5% CO2) in commercial kit provided cell medium.
Following 24 hrs of U2OS incubation, cells were directly treated with an appropriate final concentration of compound, for −GSH conditions, or for +GSH conditions, an intermediate plate containing 6× working concentrations of compound stocks was prepared in a 6 mM working concentration of GSH solution (solubilised in sterile PBS). Following a 30 minute compound-GSH pre-incubation (37° C./5% CO2) for +GSH treatment, plated U2OS cells were incubated with an appropriate final concentration of compound and GSH.
Following compound (+/−GSH) treatment, the U2OS plates were incubated for a further 6 hours (37° C./5% CO2) before detection reagent from the PathHunter NRF2 commercial kit was prepared and added to test plates according to the manufacturer's instructions. Subsequently, the luminescence signal detection in a microplate reader was measured (PHERAstar®, BMG Labtech).
Percentage activation was calculated by normalising the sample data to the high and low controls used within each plate (+/−DMF). Percentage activation/response was then plotted against compound concentration and the 50% activation concentration (EC50) was determined from the plotted concentration-response curve.

Setting [2] is: THP-1, PMA-differentiated THP-1 cells.
Setting [3] is: U2OS, normalised to dimethyl fumarate 'High' control, GSH condition not stated in Table 5.
[4] abbreviates: U2OS PathHunter cells, 6 hours, GSH condition not stated in Table 5.

For orientation: IC50 means the concentration that inhibits the measured activity by half. A word on the Emax: it is the size of the effect at its maximum, as opposed to the concentration needed. Broadly, the EC50 is the concentration needed to bring the measured effect to its halfway point.

As to `C=C(CC(=O)OCCCOc1ccccc1)C(=O)OCC(=O)O` [Example 95, 2-((2-methylene-4-oxo-4-(3-phenoxypropoxy)butanoyl)oxy)acetic acid], the IC50 in assay [1] (setting [2]) was found to be 80.6 µM. Moreover, in the assay on NRF2 (setting [3]), the maximal response (Emax) is 122%. The EC50 with NRF2 (setting [4]) worked out at 36.5 µM.

On to `C=C(CC(=O)OC1CC2(COC2)C1)C(=O)O[C@H]1[C@@H]2CC[C@H]1CN(S(C)(=O)=O)C2` [Example 157, 1-((endo)-3-(methylsulfonyl)-3-azabicyclo[3.2.1]octan-8-yl) 4-(2-oxaspiro[3.3]heptan-6-yl) 2-methylenesuccinate], for which, in assay [1] (setting [2]), the IC50 was found to be 41.6 µM. Further, in the assay with NRF2 (setting [3]), the maximal effect (Emax) stood at 29%. The EC50 in the assay on NRF2 (setting [4]) was more than 100 µM.

On to `C=C(CC(=O)OC1CCCOCC1)C(=O)O[C@H]1[C@@H]2CC[C@H]1CN(S(C)(=O)=O)C2` (stereo partly drawn) [Example 158, 1-((endo)-3-(methylsulfonyl)-3-azabicyclo[3.2.1]octan-8-yl) 4-(oxepan-4-yl) 2-methylenesuccinate], for which the concentration for half-maximal inhibition (IC50) in assay [1] (setting [2]) came to 24.2 µM. In the assay on NRF2 (setting [3]), the maximal effect (Emax) was determined as 43%. In addition, the concentration giving a half-maximal response (EC50) with NRF2 (setting [4]) is 72.8 µM.

For `C=C(CC(=O)OC1CCCCC1)C(=O)OC1CCN(S(C)(=O)=O)CC1` [Example 75, 4-cyclohexyl 1-(1-(methylsulfonyl)piperidin-4-yl) 2-methylenesuccinate], the IC50 in assay [1] (setting [2]) is 11.2 µM. The Emax in the assay with NRF2 (setting [3]) came to 143%. Also, the half-maximal effective concentration (EC50) with NRF2 (setting [4]) was 17.5 µM.

Regarding `C=C(CC(=O)OC1CCCCCCC1)C(=O)OC(CC(=O)O)C(F)(F)F` (stereo not drawn) [Example 144, 3-((4-(cyclooctyloxy)-2-methylene-4-oxobutanoyl)oxy)-4,4,4-trifluorobutanoic acid], in assay [1] (setting [2]), the IC50 was determined as 1.7 µM. Moreover, the maximal effect (Emax) in the assay with NRF2 (setting [3]) stood at 176%. In addition, the EC50 in the assay on NRF2 (setting [4]) was found to be 2.1 µM.

With `C=C(CC(=O)OC1CC2(CCC2)C1)C(=O)OCc1nn[nH]n1` [Example 163, 1-(2H-tetrazol-5-yl)methyl 4-spiro[3.3]heptan-2-yl 2-methylenesuccinate], in assay [1] (setting [2]), the IC50 amounted to 23.9 µM. Also, the Emax in the assay with NRF2 (setting [3]) stood at 0%. Moreover, in the assay on NRF2 (setting [4]), the concentration giving a half-maximal response (EC50) is more than 100 µM.

As for `C=C(CC(=O)OC1CCCCCCC1)C(=O)OCCc1nnn[nH]1` [Example 130, 1-(2-(1H-tetrazol-5-yl)ethyl) 4-cyclooctyl 2-methylenesuccinate], the IC50 in assay [1] (setting [2]) was 16 µM. Further, in the assay on NRF2 (setting [3]), the Emax stood at 164%. For the same molecule, in the assay on NRF2 (setting [4]), the EC50 worked out at 29.1 µM.

In the case of `C=C(CC(=O)OC1CCCCCCC1)C(=O)OC(C(=O)O)C(F)(F)F` (stereo not drawn) [Example 122, 2-((4-(cyclooctyloxy)-2-methylene-4-oxobutanoyl)oxy)-3,3,3-trifluoropropanoic acid], the IC50 in assay [1] (setting [2]) stood at 13 µM. Also, the Emax in the assay with NRF2 (setting [3]) is 178%. In the assay with NRF2 (setting [4]), the half-maximal effective concentration (EC50) came to 17.5 µM.

Turning to `C=C(CC(=O)OCCCCCC)C(=O)OCCc1nnn[nH]1` [Example 78, 1-(2-(1H-tetrazol-5-yl)ethyl) 4-hexyl 2-methylenesuccinate], the IC50 in assay [1] (setting [2]) is 4.2 µM. The Emax with NRF2 (setting [3]) was determined as 177%. Moreover, in the assay with NRF2 (setting [4]), the concentration for a half-maximal effect (EC50) amounted to 17.7 µM.

`C=C(C(=O)OCC(=O)O)C(O)C(=O)OC1CCCCCCC1` (stereo not drawn) [Example 189, 2-((4-(cyclooctyloxy)-3-hydroxy-2-methylene-4-oxobutanoyl)oxy)acetic acid]: the IC50 in assay [1] (setting [2]) stood at 57.9 µM. For the same molecule, the maximal response (Emax) in the assay with NRF2 (setting [3]) was found to be 137%. For the same molecule, in the assay with NRF2 (setting [4]), the concentration giving a half-maximal response (EC50) amounted to 18 µM.

Regarding `C=C(CC(=O)OC(C)COCCCC)C(=O)O[C@H]1[C@@H]2CC[C@H]1CN(S(C)(=O)=O)C2` (stereo partly drawn) [Example 159, 4-(1-butoxypropan-2-yl) 1-((endo)-3-(methylsulfonyl)-3-azabicyclo[3.2.1]octan-8-yl) 2-methylenesuccinate], the half-inhibitory concentration (IC50) in assay [1] (setting [2]) was 31.9 µM. In the assay with NRF2 (setting [3]), the maximal response (Emax) worked out at 86%. Besides, the EC50 with NRF2 (setting [4]) stood at 13.8 µM.

Turning to `C=C(CC(=O)OC1CCCCCC1)C(=O)OCC(=O)O` [Example 145, 2-(4-(cycloheptyloxy)-2-methylene-4-oxobutanoyloxy)acetic acid], the half-inhibitory concentration (IC50) in assay [1] (PMA-differentiated THP-1 cells) is 19.3 µM. Also, in the assay on NRF2 (U2OS, 6 h), the concentration for a half-maximal effect (EC50) was more than 100 µM. Moreover, in the assay with NRF2 (U2OS), the Emax amounted to 7%.
